The record followed here is ChEMBL document CHEMBL1201862, “PubChem BioAssay data set” (2004).

The source made the active and inactive calls.

Test [1] deals with T1, Beta-2 adrenergic receptor (Homo sapiens, UniProt P07550). Briefly: beta2AR agonists driving receptor internalization, dose response, cell-based, FAP fluorogen, flow cytometry, cherry pick 1 (AID 588763). The format is functional. Background: In flow cytometry, cells or beads pass a laser one at a time.
The target in test [2] is T1, Beta-2 adrenergic receptor. Briefly: Dose response for HTS for Beta-2AR agonists via FAP method from Powderset1. Type of test: functional.
The nature of test [3]: cells. The format is functional, cell-based.
The nature of test [4]: cells. The format is functional, cell-based. The source holds these as a separate data set.
Test [5] has as its target Beta-lactamase (Salmonella choleraesuis (strain SC-B67), UniProt Q5J463). Briefly: Epi-absorbance-based counterscreen for selective VIM-2 inhibitors: dose response biochemical high throughput screening assay to identify inhibitors of TEM-1 serine-beta-lactamase. Background: A counterscreen serves to expose hits that act by an unwanted route or on another target.
The target of test [6] is T2, Beta-lactamase (Pseudomonas aeruginosa, UniProt Q79MP6). Briefly: […] counterscreen for selective VIM-2 inhibitors: dose response biochemical high throughput screening assay to identify inhibitors of IMP-1 metallo-beta-lactamase.
Test [7] has as its target T2, Beta-lactamase. Briefly: IMP-1 metallo-beta-lactamase inhibitors, dose response, selectivity assay for VIM-2 inhibitor project, biochemical, epi-absorbance (AID 1920).
Test [8] deals with Vero. Briefly: cells. The format is functional, cell-based. The following applies: Chlorocebus sabaeus.
A short description of test [9]: Luminescence Cell-Based Dose Response HTS to Identify Activators of Luciferase Translation or Activity in H4 […] Cells. [Related pubchem assays: 1829 (Project Summary), 1814 (Primary HTS)]. Type of test: functional.
The test system of test [10] is HEK293. Briefly: cytotoxicity in HEK293T NF-kB-Luc cells, SAR follow-up, cytotoxicity control for NF-kB activator project, cell-based, resazurin fluorescence (AID 493251). Type of test: functional. To be noted: Homo sapiens. Background: Resazurin is reduced to fluorescent resorufin, in cell work by metabolically active cells.
Test [11] in a line: Counterscreen for activators of the function of SWI/SNF related, matrix associated, actin dependent regulator of chromatin, subfamily a, member 2 (SMARCA2, BRM): Luminescence-based cell-based high throughput dose response assay to identify non-selective compounds using the VP16 reporter assay. The format is functional.
Test [12] deals with SWI/SNF-related matrix-associated actin-dependent regulator of chromatin subfamily A member 2 (Homo sapiens, UniProt P51531). Briefly: Luminescence-based cell-based high throughput dose response assay to identify activators of the function of SWI/SNF related, matrix associated, actin dependent regulator of chromatin, subfamily a, member 2 (SMARCA2, BRM). The format is functional.

The subject of a further test is Jurkat. Briefly: SAR Analysis of small molecule inhibitors of T-cell specific antigen receptor-induced NF-kB activation in a Jurkat cell line using a luminescence assay - Set 2. [Related pubchem assays (depositor defined):AID435003, AID435012, AID465]. The following applies: Homo sapiens. The format is functional, cell-based.
Test [13] concerns Vero. Briefly: cells. Type of test: functional. The following applies: Chlorocebus sabaeus.
In test [14] the test system is HEK293. Briefly: SAR Analysis of small molecule inhibitors of T-cell specific antigen receptor-induced NF-kB activation in a HEK-293T cell line using a luminescence assay - Set 2. [Related pubchem assays (depositor defined):AID435003, AID435012, AID489026]. The following applies: Homo sapiens. The format is functional, cell-based.
In a further test the test system is H4. Briefly: Luminescence Cell-Based Dose Response HTS to Identify Activators of 5'UTR Stem-Loop Driven Prion Protein mRNA Translation in H4 Neuroglioblastoma Cells. [Related pubchem assays: 1829 (Project Summary), 1814 (Primary HTS)]. The format is functional. To be noted: Homo sapiens.
Test [15] can be described thus: Luminescence Cell-Based Dose Retest to Confirm Inhibitors of Cancer Stem Cells. [Related pubchem assays (depositor defined):AID2717, AID2721]. Type of test: functional. To be noted: Homo sapiens.
Test [16] in a line: Luminescence Cell-Based Dose Confirmation HTS to Identify Activators of 5'UTR Stem-Loop Driven Alpha-Synuclein mRNA Translation in H4 Neuroglioblastoma Cells. [Related pubchem assays: 1829 (Project Summary), 1814 (Primary HTS)]. The format is functional.
In test [17] the target is Matrix metalloproteinase-14 (Homo sapiens, UniProt P50281). Briefly: Dose Response confirmation of uHTS hits for a small molecule inhibitors of MT1-MMP activation in a fluorescence assay set 2. Type of test: functional.
For the next test, the target named is Nonstructural protein 1 (Influenza A virus, UniProt Q194T2). Type of test: functional, Influenza A virus (A/California/07/2009(H1N1)).
The target of the next test is fMet-Leu-Phe receptor (Homo sapiens, UniProt P21462). Briefly: FPR ligands, dose response (AID 519). The format is functional.
The subject of the next test is HeLa. Briefly: HeLa cell cytotoxicity, dose response, cytotoxicity control, ATP luminescence, cherry-pick samples (AID 687004). The format is functional, cell-based. The following applies: Homo sapiens.
Test [18] is described as follows: IOSE-T80 ovarian epithelial cell cytotoxicity, dose response, cytotoxicity control for PAX8 inhibitor project, plate reader, dry powder samples (AID 743045). The format is functional, cell-based.
The nature of test [19]: lymphoblastoid cell cytotoxicity, dose response, cytotoxicity control, plate reader, dry powder, set 2 (AID 624367). The format is functional.
Test [20] in a line: A2780 ovarian cancer cell cytotoxicity, dose response, cytotoxicity control, plate reader, dry powder samples (AID 743046). Type of test: functional, cell-based.
Test [21] is described as follows: NIH:OVCAR-3 ovarian cancer cell cytotoxicity, dose response, PAX8 inhibitor project, plate reader, dry powder samples (AID 743044). The format is functional, cell-based.
A short description of test [22]: IGROV1 ovarian cancer cell cytotoxicity, dose response, PAX8 inhibitor project, plate reader, dry powder samples (AID 743043). The format is functional, cell-based. To be noted: IGROV-1.
For the next test, the target named is Paired box protein Pax-8 (Homo sapiens, UniProt Q06710). Briefly: inhibitors of PAX8-driven TPO luciferase reporter, dose response, RMG-I cells, cherry-pick (AID 687027).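 Note: luciferase reporter driven by Pax8 target thyroperoxidase promoter measured by SteadyGlo luminescence.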 Type of test: functional, cell-based.
Test [23] is described as follows: cytotoxicity in OVCAR8 ovarian cancer cells, dose response, PAX8 project, cell-based, plate reader, dry powder samples (AID 743197). Type of test: functional. The following applies: OVCAR-8.
The nature of test [24]: inhibitors of PGC1a acetylation in cells, dose response, cell-based, cherry-picked samples (AID 720514).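 Note: potency may reflect raised or lowered acetylation signal.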 The format is functional.
Test [25] in a line: cytotoxicity in COV434 cells, dose response, cytotoxicity control for PAX8 inhibitor project, cell-based, plate reader, dry powder, SA7 (AID 743145). Type of test: functional.
A short description of test [26]: non-specific cell cytotoxicity, dose response, cytotoxicity control for PAX8 inhibitor project, plate reader, dry powder samples (AID 743021). The format is functional, cell-based.
The nature of test [27]: cytotoxicity dependent on PAX8, dose response, cell-based, plate reader, dry powder (AID 743049). The format is functional.
Test [28] can be described thus: cytotoxicity in COV362 ovarian cancer cells, dose response, cytotoxicity control for PAX8 inhibitor project, cell-based, plate reader, dry powder, SA12 (AID 743144). The format is functional.
The nature of test [29]: cytotoxicity in OVCAR4 cells, dose response, cytotoxicity control for PAX8 inhibitor project, cell-based, plate reader, dry powder, SA11 (AID 743150). Type of test: functional. To be noted: OVCAR-4.
Test [30] is described as follows: cytotoxicity in OV-90 ovarian cancer cells, dose response, PAX8 inhibitor project, cell-based, plate reader, dry powder, SA8 (AID 743149). The format is functional.

T2 sequence (Q79MP6 whole entry): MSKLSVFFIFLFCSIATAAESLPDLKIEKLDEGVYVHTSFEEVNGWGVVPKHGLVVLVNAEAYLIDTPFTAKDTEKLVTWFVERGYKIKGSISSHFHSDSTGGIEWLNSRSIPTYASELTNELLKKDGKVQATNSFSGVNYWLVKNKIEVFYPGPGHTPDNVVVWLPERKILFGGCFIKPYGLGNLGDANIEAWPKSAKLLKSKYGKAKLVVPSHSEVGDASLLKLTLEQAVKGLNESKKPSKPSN
T1 sequence (P07550 whole entry): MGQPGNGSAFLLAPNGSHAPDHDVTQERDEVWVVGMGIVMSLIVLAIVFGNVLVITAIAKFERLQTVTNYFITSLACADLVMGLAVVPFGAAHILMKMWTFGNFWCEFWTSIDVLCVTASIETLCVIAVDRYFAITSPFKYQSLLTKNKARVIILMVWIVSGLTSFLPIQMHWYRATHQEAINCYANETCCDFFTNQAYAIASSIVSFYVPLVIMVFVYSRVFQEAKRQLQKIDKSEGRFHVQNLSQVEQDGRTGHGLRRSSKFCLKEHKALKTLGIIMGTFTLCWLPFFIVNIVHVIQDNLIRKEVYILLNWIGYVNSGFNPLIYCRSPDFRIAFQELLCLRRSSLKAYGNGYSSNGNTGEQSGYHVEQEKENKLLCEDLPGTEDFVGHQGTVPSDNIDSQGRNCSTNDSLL
Sequence of Paired box protein Pax-8 (Q06710 whole entry): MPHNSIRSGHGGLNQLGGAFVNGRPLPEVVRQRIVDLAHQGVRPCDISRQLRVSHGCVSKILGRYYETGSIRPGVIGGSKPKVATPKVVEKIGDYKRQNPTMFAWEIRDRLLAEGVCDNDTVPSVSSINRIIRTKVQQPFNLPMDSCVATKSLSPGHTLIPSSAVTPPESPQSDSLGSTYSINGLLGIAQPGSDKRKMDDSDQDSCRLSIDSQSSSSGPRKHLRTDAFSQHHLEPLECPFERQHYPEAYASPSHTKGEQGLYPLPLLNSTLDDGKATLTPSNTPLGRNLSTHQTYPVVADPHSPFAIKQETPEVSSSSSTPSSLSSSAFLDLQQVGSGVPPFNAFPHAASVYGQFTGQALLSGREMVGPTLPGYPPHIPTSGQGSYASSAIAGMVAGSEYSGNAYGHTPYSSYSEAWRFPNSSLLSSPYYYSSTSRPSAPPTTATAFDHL
Sequence of Nonstructural protein 1 (Q194T2 whole entry): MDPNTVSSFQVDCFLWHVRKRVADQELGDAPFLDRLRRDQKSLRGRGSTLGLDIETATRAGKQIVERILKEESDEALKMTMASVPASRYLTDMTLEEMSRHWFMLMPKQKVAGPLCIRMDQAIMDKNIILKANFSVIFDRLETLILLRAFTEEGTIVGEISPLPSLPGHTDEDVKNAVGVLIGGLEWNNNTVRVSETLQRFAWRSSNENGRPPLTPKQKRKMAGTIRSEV
Sequence of Beta-lactamase (Salmonella choleraesuis (strain SC-B67), UniProt Q5J463) (Q5J463 whole entry): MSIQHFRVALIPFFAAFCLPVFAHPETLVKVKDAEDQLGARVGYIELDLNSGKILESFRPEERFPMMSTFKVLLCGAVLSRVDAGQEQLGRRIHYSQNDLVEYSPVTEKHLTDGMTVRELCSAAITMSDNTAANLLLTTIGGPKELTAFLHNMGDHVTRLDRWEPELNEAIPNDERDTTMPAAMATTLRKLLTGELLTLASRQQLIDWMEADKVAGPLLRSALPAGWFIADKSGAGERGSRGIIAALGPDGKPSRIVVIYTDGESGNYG
Sequence of SWI/SNF-related matrix-associated actin-dependent regulator of chromatin subfamily A member 2 (P51531 whole entry): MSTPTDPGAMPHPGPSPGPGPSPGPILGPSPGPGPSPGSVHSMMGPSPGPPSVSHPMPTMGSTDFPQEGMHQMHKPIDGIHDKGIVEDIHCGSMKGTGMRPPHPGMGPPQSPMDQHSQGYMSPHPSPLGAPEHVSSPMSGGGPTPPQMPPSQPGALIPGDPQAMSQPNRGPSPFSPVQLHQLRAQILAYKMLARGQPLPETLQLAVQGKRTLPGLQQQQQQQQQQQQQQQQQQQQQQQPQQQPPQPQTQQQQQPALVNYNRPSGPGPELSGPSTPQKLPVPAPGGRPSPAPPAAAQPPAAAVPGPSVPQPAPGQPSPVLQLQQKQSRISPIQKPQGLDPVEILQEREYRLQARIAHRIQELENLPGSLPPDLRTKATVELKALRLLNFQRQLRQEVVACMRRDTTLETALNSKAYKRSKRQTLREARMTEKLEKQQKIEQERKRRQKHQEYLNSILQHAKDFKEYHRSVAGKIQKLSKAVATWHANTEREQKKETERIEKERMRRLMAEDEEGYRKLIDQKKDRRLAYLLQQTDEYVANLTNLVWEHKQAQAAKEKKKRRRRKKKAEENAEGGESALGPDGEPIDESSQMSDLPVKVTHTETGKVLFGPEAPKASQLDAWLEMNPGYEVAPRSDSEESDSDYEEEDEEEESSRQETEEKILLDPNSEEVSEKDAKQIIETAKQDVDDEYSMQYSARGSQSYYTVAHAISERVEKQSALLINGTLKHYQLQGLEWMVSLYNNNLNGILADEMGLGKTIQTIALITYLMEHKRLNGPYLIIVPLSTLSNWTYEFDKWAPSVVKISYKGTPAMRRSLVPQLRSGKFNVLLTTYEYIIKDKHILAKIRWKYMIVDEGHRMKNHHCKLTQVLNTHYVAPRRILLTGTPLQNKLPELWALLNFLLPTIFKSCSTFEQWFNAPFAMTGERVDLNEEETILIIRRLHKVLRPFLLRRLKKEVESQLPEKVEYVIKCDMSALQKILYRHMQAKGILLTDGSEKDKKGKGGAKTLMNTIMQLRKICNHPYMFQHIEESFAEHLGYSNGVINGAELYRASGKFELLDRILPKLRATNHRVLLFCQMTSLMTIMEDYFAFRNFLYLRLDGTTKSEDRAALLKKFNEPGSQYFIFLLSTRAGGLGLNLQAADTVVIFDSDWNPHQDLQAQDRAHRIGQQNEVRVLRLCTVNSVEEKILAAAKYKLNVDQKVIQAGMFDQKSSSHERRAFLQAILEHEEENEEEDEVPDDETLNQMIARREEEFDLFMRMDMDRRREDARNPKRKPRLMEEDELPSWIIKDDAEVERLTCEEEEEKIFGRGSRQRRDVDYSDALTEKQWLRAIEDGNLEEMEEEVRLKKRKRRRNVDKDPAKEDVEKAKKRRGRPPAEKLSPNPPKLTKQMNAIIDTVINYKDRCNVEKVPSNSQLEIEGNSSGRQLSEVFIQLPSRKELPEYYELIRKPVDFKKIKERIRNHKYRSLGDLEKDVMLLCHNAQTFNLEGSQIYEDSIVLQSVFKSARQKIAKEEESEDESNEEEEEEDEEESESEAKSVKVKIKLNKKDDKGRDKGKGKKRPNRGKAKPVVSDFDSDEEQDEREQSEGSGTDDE
Sequence of fMet-Leu-Phe receptor (P21462 whole entry): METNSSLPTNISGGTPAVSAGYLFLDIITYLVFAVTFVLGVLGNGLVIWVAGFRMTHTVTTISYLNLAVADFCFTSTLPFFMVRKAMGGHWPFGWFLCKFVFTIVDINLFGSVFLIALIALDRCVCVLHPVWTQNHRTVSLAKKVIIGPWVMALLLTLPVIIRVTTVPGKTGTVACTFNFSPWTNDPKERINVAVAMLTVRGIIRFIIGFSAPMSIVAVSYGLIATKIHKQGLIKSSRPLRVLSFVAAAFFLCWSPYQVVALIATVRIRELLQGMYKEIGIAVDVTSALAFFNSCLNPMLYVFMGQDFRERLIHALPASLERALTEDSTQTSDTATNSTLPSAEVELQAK

As usually defined, the EC50 is the concentration giving half of the maximal effect. Consider `O=C(c1ccc(OC2CCN(Cc3ccc(F)cc3)CC2)cc1)N1CCCC1`, for which the EC50 was 1.6 µM (active) in test [1], 5.28 µM (active) in [2], > 350 µM (not active) in “cells [3]” and > 350 µM (not active) in “cells [4]”.

As usually defined, the IC50 is the midpoint of a concentration-inhibition curve. For the molecule `COCC(=O)Nc1nnc(SCC(=O)NCc2cccs2)s1`, the IC50 on Beta-lactamase [5], at Beta-lactamase [6] and on Beta-lactamase [7] was > 59.6 µM (inactive) throughout.

What is called CC50 is the concentration at which the toxic effect on the cells reaches its halfway point. One may read the AC50 as the concentration giving half of the maximal activity seen. As for `CC(=O)c1ccc(NC(=O)c2ccc([N+](=O)[O-])o2)cc1`, the IC50 in the test on Vero [8] is > 25 µM (active); with HEK293 [10] it was 51.8 µM (inactive); in the test with Jurkat, 35.2 µM (inactive); in the test on HEK293 [14], 38.9 µM (inactive). Further, the concentration for a half-maximal effect (EC50) in [9] is > 120 µM (not active); in test [11] it was > 91.1 µM (inactive); in test [12] it was > 91.1 µM (inactive); with H4 it was > 120 µM (not active); in [16], > 120 µM (not active). In addition, the CC50 with Vero [13] is 14.3 µM (active). For the same molecule, the AC50 in test [15] is 4.95 µM (active).

Regarding `CCN1C(=O)/C(=C2\C=Cc3ccccc3N2CC)SC1=S`, the IC50 was > 80 µM (inactive) in test [17] and 4.15 µM (active) at Nonstructural protein 1.

In general, Ki refers to a dissociation constant, usually derived from enzyme kinetics or from competition with a known ligand. With `C=CCn1c(O)cc(=O)nc1SCCCC`, the Ki at fMet-Leu-Phe receptor was 30.3 µM (inactive).

Consider `CC(C)NC(=O)Nc1ccc2c(c1)CC(=O)N([C@H](C)CO)C[C@H](C)[C@H](CN(C)S(=O)(=O)c1ccc(Cl)cc1)O2`, for which the AC50 in the test with HeLa is 37.9 µM (active).

On to `O=C(C[C@@H]1C[C@H]2c3cc(NS(=O)(=O)c4ccc(F)cc4)ccc3O[C@H]2[C@@H](CO)O1)NCc1ccc(Oc2ccccc2)cc1`, for which the AC50 is 26.7 µM (active) in [18]; 45.6 µM (active) in test [20]; 21.5 µM (active) in test [21]; 44.3 µM (active) in test [22]; 7.32 µM (active) on Paired box protein Pax-8; 43.5 µM (active) in [23]. Further, the AbsAC35 in test [19] came to 42.5 µM.

As to `CN(C[C@H]1N[C@@H](CO)[C@@H]1c1ccc(C2=CCCC2)cc1)C(=O)c1cccc(F)c1`, the AC50 in test [18] is 3.44 µM (active); in [24] it was 0.298 µM (active); in [25], 6.6 µM (active); in test [26], 26 µM (active); in test [27] it was 3.86 µM (active); in test [28] it was 3.98 µM (active). Moreover, the AC50 in test [20] is 11.3 µM (active); in [21], 4.55 µM (active); in test [22] it was 6.12 µM (active); in test [29] it was 1.37 µM (active); on Paired box protein Pax-8, 2.47 µM (active); in test [23], 3.4 µM (active). The half-maximal activity concentration (AC50) in [30] is 7.38 µM (active).
